Data taken from patent US20080057044A1, “Lactobacillus Plantarum with Body-Fat Reducing Activity and the Foods Containing Them” (priority 2004, published 2008).

System: overweight people
Assay: not given
Details: 180 overweight people, one year; cited from earlier work

For conjugated linoleic acid [CLA], the weight loss is listed as 4-10%.

System: Lactobacillus plantarum Strain PL62
Assay: Antibiotic resistance (diameter of growth inhibition)
Type: cell-based
Details: not given
Excerpt: The stronger antibiotic resistance a probiotic has, the higher survivability within the intestines is. Thus, the stronger an antibiotic resistance is, the better it is. However, if an antibiotic resistance is transferred, resistance problems may be brought about. It was confirmed whether an antibiotic resistance was transferred to other bacteria or not.

First: CC1(C)S[C@@H]2[C@H](NC(=O)[C@H](N)c3ccccc3)C(=O)N2[C@H]1C(=O)O [Ampicillin]
Second: CC1(C)S[C@@H]2[C@H](NC(=O)C(C(=O)O)c3ccccc3)C(=O)N2[C@H]1C(=O)O (some centres unmarked) [Carbenicillin]
The “Diameter (mm) of growth inhibition” value of the first is higher: 34 mm for the first, 29 mm for the second.

Going from `CCN1CCN(C(=O)N[C@@H](C(=O)N[C@@H]2C(=O)N3C(C(=O)O)=C(CSc4nnnn4C)CS[C@H]23)c2ccc(O)cc2)C(=O)C1=O` [Cefoperazone] to `CC(=O)OCC1=C(C(=O)O)N2C(=O)[C@@H](NC(=O)Cc3cccs3)[C@H]2SC1` [Cephalothin], the “Diameter (mm) of growth inhibition” value rises from 22 mm to 25 mm.

Compared with `O=C(N[C@H](CO)[C@H](O)c1ccc([N+](=O)[O-])cc1)C(Cl)Cl` [Chloramphenicol], `CCC[C@@H]1C[C@@H](C(=O)N[C@@H]([C@H]2O[C@H](SC)[C@H](O)[C@@H](O)[C@H]2O)[C@H](C)Cl)N(C)C1` [Clindamycin] is lower in “Diameter (mm) of growth inhibition” value: 30 mm for the first, 20 mm for the second.

Compared with `CC[C@H]1OC(=O)[C@H](C)[C@@H](O[C@H]2C[C@@](C)(OC)[C@@H](O)[C@H](C)O2)[C@H](C)[C@@H](O[C@@H]2O[C@H](C)C[C@H](N(C)C)[C@H]2O)[C@](C)(O)C[C@@H](C)C(=O)[C@H](C)[C@@H](O)[C@]1(C)O` [Erythromycin], `Cc1onc(-c2ccccc2)c1C(=O)N[C@@H]1C(=O)N2[C@@H]1SC(C)(C)[C@@H]2C(=O)O` [Oxacillin] is lower in “Diameter (mm) of growth inhibition” value: 32 mm for the first, 11 mm for the second.

Going from `CCN1CCN(C(=O)N[C@@H](C(=O)N[C@@H]2C(=O)N3[C@@H]2SC(C)(C)[C@@H]3C(=O)O)c2ccccc2)C(=O)C1=O` [Piperacilin] to `CO[C@H]1/C=C/O[C@@]2(C)Oc3c(C)c(O)c4c(O)c(c(/C=N/N5CCN(C)CC5)c(O)c4c3C2=O)NC(=O)/C(C)=C\C=C\[C@H](C)[C@H](O)[C@@H](C)[C@@H](O)[C@@H](C)[C@H](OC(C)=O)[C@@H]1C` [Rifampin], the “Diameter (mm) of growth inhibition” value falls from 37 mm to 24 mm.

Compared with `[H]/N=C(/N)N[C@H]1[C@H](O)[C@@H](O)[C@H](O[C@@H]2O[C@@H](C)[C@](O)(C=O)[C@H]2O[C@@H]2O[C@@H](CO)[C@H](O)[C@@H](O)[C@@H]2NC)[C@@H](N/C(N)=N\[H])[C@@H]1O` [Streptomycin], `CN(C)[C@@H]1C(O)=C(C(N)=O)C(=O)[C@@]2(O)C(O)=C3C(=O)c4c(O)cccc4[C@@](C)(O)[C@H]3C[C@@H]12` [Tetracycline] is higher in “Diameter (mm) of growth inhibition” value: 8 mm for the first, 24 mm for the second.

First: CN[C@H](CC(C)C)C(=O)N[C@H]1C(=O)N[C@@H](CC(N)=O)C(=O)N[C@H]2C(=O)N[C@H]3C(=O)N[C@H](C(=O)N[C@H](C(=O)O)c4cc(O)cc(O)c4-c4cc3ccc4O)[C@H](O)c3ccc(c(Cl)c3)Oc3cc2cc(c3O[C@@H]2O[C@H](CO)[C@@H](O)[C@H](O)[C@H]2O[C@H]2C[C@](C)(N)[C@H](O)[C@H](C)O2)Oc2ccc(cc2Cl)[C@H]1O [Vancomycin]
Second: Gentamicin
The “Diameter (mm) of growth inhibition” value of the first is lower: 6 mm for the first, 12 mm for the second.

Going from Penicillin to Trimethpprime/sulfamethoxasole, the “Diameter (mm) of growth inhibition” value falls from 29 mm to 28 mm.
